The source made the active and inactive calls.
How the values were obtained:
[1] = target: T1, Probable nicotinate-nucleotide adenylyltransferase (Staphylococcus aureus (strain N315), UniProt P65502); format: functional, Staphylococcus aureus subsp. aureus N315;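 as to IC50 Mean: confirmatory dose-response retesting of NadD inhibitor hits first found in an ultra-high-throughput screen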
[2] = target: T1, Probable nicotinate-nucleotide adenylyltransferase; format: functional, Staphylococcus aureus subsp. aureus N315; conditions: read-out: IC50_Mean
[3] = target: T2, Trace amine-associated receptor 1 (Homo sapiens, UniProt Q96RJ0); experiment: Counterscreen for agonists of the human trace amine associated receptor 1 (hTAAR1): Fluorescence-based cell-based high throughput dose response assay to identify hTAAR1 agonist that also desensitize TAAR1 receptor response.; format: functional
T2 sequence (Q96RJ0 whole entry): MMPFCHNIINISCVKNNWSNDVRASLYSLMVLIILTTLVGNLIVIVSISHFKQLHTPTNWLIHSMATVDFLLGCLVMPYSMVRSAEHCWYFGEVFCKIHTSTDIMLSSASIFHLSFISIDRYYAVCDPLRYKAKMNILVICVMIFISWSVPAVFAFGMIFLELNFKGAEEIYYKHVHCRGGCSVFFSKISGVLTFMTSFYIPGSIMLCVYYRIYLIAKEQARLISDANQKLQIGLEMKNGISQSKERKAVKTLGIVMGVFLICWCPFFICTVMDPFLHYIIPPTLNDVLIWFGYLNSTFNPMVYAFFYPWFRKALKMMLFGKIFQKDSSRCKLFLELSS

[4] = target: T2, Trace amine-associated receptor 1; experiment: Fluorescence-based cell-based high throughput dose response assay to identify agonists of the human trace amine associated receptor 1 (TAAR1).; format: functional
cells [5] = format: functional, cell-based
cells [6] = format: functional, cell-based; remark: listed apart in the source
[7] = Luminescence-based cell-based high throughput dose response assay to identify activators of the DAF-12 from the parasite S. stercoralis (ssDAF-12).; format: functional
[8] = NIH:OVCAR-3 ovarian cancer cell cytotoxicity, dose response, PAX8 inhibitor project, plate reader, dry powder samples (AID 743044); format: functional, cell-based
Paired box protein Pax-8 = Paired box protein Pax-8 (Homo sapiens, UniProt Q06710); experiment: inhibitors of PAX8-driven TPO luciferase reporter, dose response, RMG-I cells, cherry-pick (AID 687027); format: functional, cell-based;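 also: luciferase reporter driven by Pax8 target thyroperoxidase promoter measured by SteadyGlo luminescence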
Chain of Paired box protein Pax-8 (Q06710 whole entry): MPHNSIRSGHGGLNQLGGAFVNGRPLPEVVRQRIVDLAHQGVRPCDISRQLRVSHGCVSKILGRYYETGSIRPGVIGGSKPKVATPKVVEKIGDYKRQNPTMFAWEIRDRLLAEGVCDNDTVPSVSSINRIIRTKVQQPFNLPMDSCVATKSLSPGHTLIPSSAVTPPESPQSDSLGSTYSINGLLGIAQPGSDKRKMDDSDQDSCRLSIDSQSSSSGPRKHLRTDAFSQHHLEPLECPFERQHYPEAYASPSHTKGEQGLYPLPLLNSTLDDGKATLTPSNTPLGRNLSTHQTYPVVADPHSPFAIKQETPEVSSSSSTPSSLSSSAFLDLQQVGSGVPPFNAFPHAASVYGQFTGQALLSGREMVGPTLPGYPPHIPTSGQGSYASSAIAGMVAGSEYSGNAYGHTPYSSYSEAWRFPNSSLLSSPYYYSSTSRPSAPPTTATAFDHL

[9] = IGROV1 ovarian cancer cell cytotoxicity, dose response, PAX8 inhibitor project, plate reader, dry powder samples (AID 743043); format: functional, cell-based; conditions: IGROV-1
[10] = A2780 ovarian cancer cell cytotoxicity, dose response, cytotoxicity control, plate reader, dry powder samples (AID 743046); format: functional, cell-based
[11] = cytotoxicity in OVCAR8 ovarian cancer cells, dose response, PAX8 project, cell-based, plate reader, dry powder samples (AID 743197); format: functional; conditions: OVCAR-8

T1 sequence (P65502 whole entry): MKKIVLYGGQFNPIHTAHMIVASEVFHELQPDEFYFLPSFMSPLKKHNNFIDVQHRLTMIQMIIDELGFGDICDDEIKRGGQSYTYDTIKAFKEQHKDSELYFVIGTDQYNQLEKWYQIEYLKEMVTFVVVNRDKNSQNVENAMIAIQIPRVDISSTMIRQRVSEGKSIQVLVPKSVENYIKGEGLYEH

| SMILES | IC50 [3] | EC50 [4] | EC50 (cells [5]) | IC50 (cells [6]) | also measured |
| --- | --- | --- | --- | --- | --- |
| Cc1ccc(-c2cc(-c3ccccc3Cl)c(C#N)c(N)n2)o1 |  |  |  |  | IC50 [1]: 5.05 µM (active); IC50 [2]: 7.76 µM (active) |
| COc1ccc(C(c2nnnn2CCc2ccccc2)N2CCN(C3CCCC3)CC2)cc1 (stereo unspecified) | 8.17 µM (active) | 1.62 µM (active) | > 29.9 µM (inactive) | > 29.9 µM (inactive) |  |
| O=[N+]([O-])c1cc(Cl)ccc1-c1nc(-c2ccccc2)no1 |  |  |  |  | IC50 [7]: > 67.6 µM (inactive) |
| C[C@@H]1CN([C@H](C)CO)C(=O)c2cc(NC(=O)Nc3ccc(C(F)(F)F)cc3)ccc2O[C@@H](C)CCCCO[C@H]1CN(C)C(=O)Nc1ccc(C(F)(F)F)cc1 |  |  |  |  | AC50 [8]: 12.4 µM (active); AC50 (Paired box protein Pax-8): 1.89 µM (active); AC50 [9]: 63 µM (active); AC50 [10]: 34.1 µM (active); AC50 [11]: 52.3 µM (active) |
| O=C(N[C@@H](Cc1cccnc1)C(=O)N1CCC[C@H]1C(=O)NCCc1ccccc1Cl)C1CC1 | 13.6 µM (inactive) | > 9.98 µM (active) | > 29.9 µM (inactive) | > 29.9 µM (inactive) |  |

— ChEMBL document CHEMBL1201862, “PubChem BioAssay data set” (2004)
